From PubChem BioAssay (NCI)
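Method: 48-hour compound exposure of cells in 96-well plates, five concentrations, linear interpolation of endpoints. TGI denotes the concentration required for complete inhibition of growth.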

Columns and labels:
Assay in all cases: DTP human tumour cell line panel, 48 h
[1] = system: CCRF-CEM leukemia
[2] = system: DMS 114 small cell lung
[3] = system: IGROV1 ovarian
[4] = system: M19-MEL melanoma
[5] = system: SF-539 CNS
[6] = system: SNB-19 CNS
[7] = system: SNB-75 CNS
[8] = system: SNB-78 CNS
[9] = system: TK-10 renal
[10] = system: DLD-1 colon
[11] = system: MDA-MB-435
[12] = system: NCI/ADR-RES ovarian

| Structure (SMILES) | TGI [1] [µM] | TGI [2] [µM] | TGI [3] [µM] | TGI [4] [µM] | TGI [5] [µM] | TGI [6] [µM] | TGI [7] [µM] | TGI [8] [µM] | TGI [9] [µM] | TGI [10] [µM] | TGI [11] [µM] | TGI [12] [µM] |
| --- | --- | --- | --- | --- | --- | --- | --- | --- | --- | --- | --- | --- |
| [N-]=[N+]=CC(=O)C1(C(=O)C=[N+]=[N-])CC1 | > 100 | > 100 | > 100 | > 100 | > 100 | > 100 | > 100 | > 100 | > 100 | – | – | – |
| CCOC(=O)/C(Br)=C1\OC(=O)c2ccccc2-c2ccccc21 | 67.7 | 61.7 | > 100 | > 100 | 73.1 | – | > 100 | > 100 | > 100 | > 100 | – | – |
| Cc1cc(N(CCC#N)S(=O)(=O)c2ccccc2)ccc1C=Nc1cccc(C(=O)O)c1 | > 100 | > 100 | > 100 | > 100 | > 100 | > 100 | > 100 | > 100 | > 100 | – | – | – |
| CCC(=O)OC1CCn2c1nc1c2C(=O)C(C)=C(NC(C)=O)C1=O (configuration not stated) | 3.89 | 1.62 | 3.98 | 3.31 | 3.21 | 6.75 | 10.3 | 4.35 | 17 | 3.96 | – | – |
| CC(C)OP(=O)(OC(C)C)C(=NCCO)NNc1ccc([N+](=O)[O-])cc1 | > 100 | > 100 | – | > 100 | > 100 | > 100 | > 100 | > 100 | > 100 | > 100 | – | – |
| O=C(NN1C(=O)C(Cl)C1c1cccc(O)c1)c1ccccc1O (configuration not stated) | > 100 | > 100 | > 100 | > 100 | > 100 | > 100 | > 100 | > 100 | > 100 | > 100 | – | – |
| CC(=O)c1ccc(N2C(=O)C3c4[nH]c5ccccc5c4C4CCC(C(C)(C)C)CC4C3C2=O)cc1 (configuration not stated) | > 100 | 59.8 | > 100 | 42.1 | 46.1 | > 100 | 94.7 | 74.9 | – | > 100 | – | – |
| c1ccc2c(c1)nnn2CNc1ccc(N2CCCCC2)cc1 | > 100 | > 100 | > 100 | – | > 100 | > 100 | > 100 | > 100 | > 100 | > 100 | – | – |
| CN1C(=O)N(C)C2(CCN(CC(CC3OCCO3)c3ccc(F)cc3)CC2)C1=O (configuration not stated) | > 100 | – | > 100 | – | > 100 | > 100 | > 100 | – | > 100 | – | > 100 | > 100 |
| N/C(=N\N=C\c1cc2ccccc2s1)c1cnccn1 | > 100 | – | > 100 | – | > 100 | > 100 | 79.3 | – | > 100 | – | > 100 | > 100 |
| Oc1ccc(-c2c3ccccc3c(-c3ccc(O)cc3)c3ccccc23)cc1 | > 100 | > 100 | > 100 | > 100 | > 100 | > 100 | > 100 | > 100 | > 100 | > 100 | – | – |
| OC1(c2ccccc2)CC2CCC(C1)N2CCCC(O)(c1ccccc1)c1ccccc1 (configuration not stated) | 30.8 | – | 29.9 | – | 16.8 | 42.9 | 23.8 | – | 25.8 | – | 24.8 | 39.1 |
| CC1(CO)C(O)CCC2(C)C1CCC1CC3CC12CCC3(O)CO (configuration not stated) | > 100 | > 100 | > 100 | > 100 | > 44.5 | > 100 | > 100 | > 100 | – | > 100 | – | > 100 |
| Cc1ccc2nc(N)[nH]c(=O)c2c1Sc1ccncc1 | > 100 | > 100 | > 100 | > 100 | > 100 | > 100 | > 100 | > 100 | > 100 | > 100 | – | – |
| N#C/C(=C\c1ccc(O)c(O)c1)c1c(C#N)c(N)nn1-c1ccccc1 | 37.5 | – | 14.5 | 94.6 | 18.9 | 42.4 | > 100 | > 100 | > 100 | > 100 | – | – |
